From patent US20100168129A1, “DRUGS WITH ANTICHOLESTATIC ACTIVITY” (priority 2007, published 2010)
Read-outs that look alike come from different tables or passages of the source.

Experiments:
[1] = tested on: Micrococcus luteus ATCC 10240; assay: plate diffusion method, antibacterial activity and MIC; type: cell-based
Method: To verify antibacterial activity, the plate diffusion method is used as described in the pharmacopeia: • A quantity of the sample is weighed and slowly dissolved in 25 ml of methanol R • A quantity of 0.05 M phosphate buffer at pH 7.0 is added so as to obtain the following concentrations: 50 μg/ml, 20 μg/ml, 10 μg/ml and 5 μg/ml • Plates were prepared with appropriate culture medium (agar thickness approximately 2-5 mm) inoculated with a suspension of Micrococcus luteus ATCC 10240, Staphylococcus aureus ATCC 6538 and Escherichia coli ATCC 8739. • 0.1 ml of the different concentrations of each sample were dispensed into the wells formed in the agar plates • The plates were held for 1-2 hours at ambient temperature to allow diffusion of the sample and then incubated at 35-39° C. for not less than 18 hours. • The diameters of the inhibition halos of the compounds were measured with a gauge and compared with those of the reference substance, the results being expressed as percentages.

human receptor PXR [2] = target: T1, human receptor PXR (Homo sapiens, UniProt O75469); assay: activation of the PXR receptor: CYP3A4 luciferase reporter induction in cell line DPX2; details: for Induction above DMSO: ratio of luciferase activity to DMSO-treated cells; for Mean RLU: cell line DPX2P29
T1 sequence (O75469 1-434): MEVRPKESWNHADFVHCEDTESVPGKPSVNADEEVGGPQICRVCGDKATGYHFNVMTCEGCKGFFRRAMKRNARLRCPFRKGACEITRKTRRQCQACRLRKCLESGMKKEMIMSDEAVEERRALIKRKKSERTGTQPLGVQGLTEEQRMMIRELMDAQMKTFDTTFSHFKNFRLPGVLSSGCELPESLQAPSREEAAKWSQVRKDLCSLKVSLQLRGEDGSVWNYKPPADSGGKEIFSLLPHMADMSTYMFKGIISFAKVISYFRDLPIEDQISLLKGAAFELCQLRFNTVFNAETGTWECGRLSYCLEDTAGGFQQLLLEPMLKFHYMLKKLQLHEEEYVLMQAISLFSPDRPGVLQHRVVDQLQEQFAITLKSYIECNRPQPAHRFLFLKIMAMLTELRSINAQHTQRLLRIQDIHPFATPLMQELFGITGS
Method: (§1) The activity of the new rifamycins is expressed as a ratio between luciferase activity in cells treated with the tested substance and that of the cells treated with DMSO. The viability and morphology of the cells are analyzed by optical microscopy.

cell line DPX2 [3] = details: human, 10 μM
Method: as §1

human receptor PXR [4] = target: T1, human receptor PXR; details: 10 μM
Method: as §1

cell line DPX2 [5] = assay: viability and morphology of the cells by optical microscopy
Method: as §1

[6] = Table B, 5 μg/ml, compared with standard rifampicin
[7] = Table B, 10 μg/ml, compared with standard rifampicin
[8] = Table B, 20 μg/ml, compared with standard rifampicin
[9] = Table B, 50 μg/ml, compared with standard rifampicin
[10] = Table A, 5 μg/ml, inhibition halo vs reference standard (rifamycin S for SX1, rifampicin for SX4 and SX5)
[11] = Table A, 10 μg/ml, inhibition halo vs reference standard (rifamycin S for SX1, rifampicin for SX4 and SX5)
[12] = Table A, 50 μg/ml, inhibition halo vs reference standard (rifamycin S for SX1, rifampicin for SX4 and SX5)

SMILES | percentage antibacterial activity [1, 6] | percentage antibacterial activity [1, 7] | percentage antibacterial activity [1, 8] | percentage antibacterial activity [1, 9] | Induction above DMSO (human receptor PXR [2]; 10 μM) | Mean RLU (human receptor PXR [2]; 5 μM) | Induction above DMSO (human receptor PXR [2]; 5 μM) | Mean RLU (human receptor PXR [2]; 10 μM) | Mean RLU (human receptor PXR [2]; 20 μM) | Induction above DMSO (human receptor PXR [2]; 20 μM) | Mean RLU (human receptor PXR [2]; 40 μM) | Induction above DMSO (human receptor PXR [2]; 40 μM) | percentage antibacterial activity [1, 10] | percentage antibacterial activity [1, 11] | percentage antibacterial activity [1, 12] | Cell appearance**: cell confluence (%) (cell line DPX2 [5]; 5 μM) | Cell appearance**: morphology (cell line DPX2 [5]; 5 μM) | Cell appearance**: cell confluence (%) (cell line DPX2 [5]; 10 μM) | Cell appearance**: cell confluence (%) (cell line DPX2 [5]; 20 μM) | Cell appearance**: cell confluence (%) (cell line DPX2 [5]; 40 μM) | also measured
COC1CCOC2(C)Oc3c(C)c(O)c4c(O)c(c(C=NN5CCN(C(C)C)CC5)c(O)c4c3C2=O)NC(=O)C(C)CCCC(C)C(O)C(C)C(O)C(C)C(OC(C)=O)C1C (centres unmarked) [Example 15, 3-(4′-isopropyl-1′-piperazinyl-iminomethyl)-16,17,18,19,28,29-hexahydrorifamycin SV] | 0% | 0% | 0% | 0% | – | – | – | – | – | – | – | – | – | – | – | – | – | – | – | – | MIC (Minimum Inhibitory Concentration) ([1]; Table B): >50 µg/mL
CC[C@H](C)C(=O)O[C@H]1CCC=C2C=C[C@H](C)[C@H](CC[C@@H]3C[C@@H](O)CC(=O)O3)[C@H]21 [Mevastafin, Mevastatin] | – | – | – | – | 3.4 | – | – | – | – | – | – | – | – | – | – | – | – | – | – | – | Cell appearance**: cell confluence (%) (cell line DPX2 [3]): 30%; Cell appearance**: morphology (cell line DPX2 [3]): MCM; Mean RLU (human receptor PXR [4]): 758 RLU
CO[C@H]1/C=C/O[C@@]2(C)Oc3c(C)c(O)c4c(c3C2=O)C(=O)C(N2CCOCC2)=C(NC(=O)/C(C)=C\C=C\[C@H](C)[C@@H]2OC(C)(C)O[C@@H]([C@@H](C)[C@H](OC(C)=O)[C@@H]1C)[C@@H]2C)C4=O [Example 23, 3-morpholine-21,23 O-isopropylidenerifamycin S, reference compound] | – | – | – | – | 35.3 | 6537 RLU | 29.3 | 7869 RLU | 4738 RLU | 21.2 | 396 RLU | 1.8 | 39% | 40% | 69% | 30% | MCM | 30% | 10% | 0% | PXR activation, comparison in words (human receptor PXR [2]; compared with the compounds of the invention): decidedly less active; MIC (Minimum Inhibitory Concentration) ([1]; Table A): <5 µg/mL
COC1CCOC2(C)Oc3c(C)c(O)c4c(O)c(c(C=NN5CCN(C)CC5)c(O)c4c3C2=O)NC(=O)C(C)CCCC(C)C(O)C(C)C(O)C(C)C(OC(C)=O)C1C (centres unmarked) [Example 1, 3-(4′-methyl-1′-piperazinyl-iminomethyl)-16,17,18,19,28,29-hexahydrorifamycin SV] | – | – | – | – | 54.1 | 8698 RLU | 39.0 | 12069 RLU | 12918 RLU | 57.9 | 14636 RLU | 65.6 | 0% | 0% | 42% | 30% | MCM | 30% | 30% | 30% | Cell appearance**: morphology (cell line DPX2 [5]; 10 μM): MCM; Cell appearance**: morphology (cell line DPX2 [5]; 20 μM): MCM; Cell appearance**: morphology (cell line DPX2 [5]; 40 μM): MCM
COC1CCOC2(C)Oc3c(C)c(O)c4c(O)c(c(C=NN5CCN(C)CC5)c(O)c4c3C2=O)NC(=O)C(C)CCCC(C)C2OC(C)(C)OC(C2C)C(C)C(OC(C)=O)C1C (centres unmarked) [Example 3, 3-(4′-methyl-1′-piperazinyl-iminomethyl)-21,23-O-isopropylidene-16,17,18,19,28,29-hexahydrorifamycin SV] | – | – | – | – | 48.6 | 8052 RLU | 36.1 | 10848 RLU | 7125 RLU | 32.0 | 4243 RLU | 19.0 | 0% | 0% | 0% | 30% | MCM | 30% | 20% | 20% | MIC (Minimum Inhibitory Concentration) ([1]; Table A): >50 µg/mL; Cell appearance**: morphology (cell line DPX2 [5]; 10 μM): MCM; Cell appearance**: morphology (cell line DPX2 [5]; 20 μM): MCM
CCN1CCN(N=Cc2c3c(O)c4c(O)c(C)c5c(c4c2O)C(=O)C(C)(OCCC(OC)C(C)C(OC(C)=O)C(C)C(O)C(C)C(O)C(C)CCCC(C)C(=O)N3)O5)CC1 (centres unmarked) [Example 6, 3-(4′-ethyl-1′-piperazinyl-iminomethyl)-16,17,18,19,28,29-hexahydrorifamycin SV] | 0% | 0% | 0% | 39% | – | – | – | – | – | – | – | – | – | – | – | – | – | – | – | – | –
CCOCCN1CCN(N=Cc2c3c(O)c4c(O)c(C)c5c(c4c2O)C(=O)C(C)(OCCC(OC)C(C)C(OC(C)=O)C(C)C(O)C(C)C(O)C(C)CCCC(C)C(=O)N3)O5)CC1 (centres unmarked) [Example 12, 3-[4′-(2-ethoxyethyl)-1′-piperazinyl-iminomethyl]-16,17,18,19,28,29-hexahydrorifamycin SV] | 0% | 0% | 0% | 0% | – | – | – | – | – | – | – | – | – | – | – | – | – | – | – | – | MIC (Minimum Inhibitory Concentration) ([1]; Table B): >50 µg/mL
